Laboratory results from ChEMBL document CHEMBL4680273, “Teixobactin: A Paving Stone toward a New Class of Antibiotics?” (2020).
≈ marks a conversion by molar mass, not a printed value.

System: Staphylococcus aureus
Assay: Antibacterial activity against Staphylococcus aureus ATCC 29213 incubated for 16 hrs by UV/Visible absorbance method
Assay type: functional

Structure (SMILES) | MIC
CC[C@H](C)[C@@H]1NC(=O)[C@H](CCCNC(=N)N)NC(=O)[C@H](C)NC(=O)[C@@H](NC(=O)[C@H](CO)NC(=O)[C@@H](NC(=O)[C@H](NC(=O)[C@@H](CCC(N)=O)NC(=O)[C@H](CO)NC(=O)[C@@H](NC(=O)[C@@H](Cc2ccccc2)NC)[C@@H](C)CC)[C@@H](C)CC)[C@@H](C)CC)[C@H](C)NC1=O | > 32 µg/mL
CC[C@H](C)[C@H](NC(=O)[C@@H](Cc1ccccc1)NC)C(=O)N[C@@H](CO)C(=O)N[C@H](CCC(N)=O)C(=O)N[C@@H](C(=O)N[C@H](C(=O)N[C@@H](CO)C(=O)N[C@H]1C(=O)N[C@@H](C)CC(=O)N[C@@H](CCCNC(=N)N)C(=O)N[C@@H]([C@@H](C)CC)CC(=O)O[C@H]1C)[C@@H](C)CC)[C@@H](C)CC | 32 µg/mL (≈ 25.1 µM)
CC[C@H](C)[C@H](NC(=O)[C@@H](Cc1ccccc1)NC)C(=O)N[C@@H](CO)C(=O)N[C@H](CCC(N)=O)C(=O)N[C@@H](C(=O)N(C)[C@H](C(=O)N[C@@H](CO)C(=O)N[C@H]1C(=O)N[C@@H](C)CC(=O)N[C@@H](CCCNC(=N)N)C(=O)N[C@@H]([C@@H](C)CC)C(=O)O[C@H]1C)[C@@H](C)CC)[C@@H](C)CC | 32 µg/mL (≈ 25.1 µM)
CC[C@H](C)[C@@H]1NC(=O)[C@H](CCCNC(=N)N)NC(=O)[C@H](C)NC(=O)[C@@H](NC(=O)[C@H](CO)NC(=O)[C@@H](NC(=O)[C@H](NC(=O)[C@@H](CCC(N)=O)NC(=O)[C@H](CO)NC(=O)[C@@H](NC(=O)[C@@H](Cc2ccccc2)NC)[C@@H](C)CC)[C@@H](C)CC)[C@@H](C)CC)[C@@H](C)NC1=O | > 32 µg/mL
CC[C@H](C)[C@@H]1NC(=O)[C@H](CCCNC(=N)N)NC(=O)[C@H](C)NC(=O)[C@H](NC(=O)[C@H](CO)NC(=O)[C@@H](NC(=O)[C@H](NC(=O)[C@@H](CCC(N)=O)NC(=O)[C@H](CO)NC(=O)[C@@H](NC(=O)[C@@H](Cc2ccccc2)NC)[C@@H](C)CC)[C@@H](C)CC)[C@@H](C)CC)[C@@H](C)NC1=O | > 32 µg/mL
CC[C@H](C)[C@H](NC(=O)[C@@H](Cc1ccccc1)NC)C(=O)N[C@@H](CO)C(=O)N[C@H](CCC(N)=O)C(=O)N[C@@H](C(=O)N[C@H](C(=O)N[C@@H](CO)C(=O)N[C@H]1C(=O)N[C@@H](C)CC(=O)N[C@@H](CCCNC(=N)N)CC(=O)N[C@@H]([C@@H](C)CC)C(=O)O[C@H]1C)[C@@H](C)CC)[C@@H](C)CC | > 32 µg/mL

Molecules with a lower MIC, results first:

MIC | Structure (SMILES)
4 µg/mL (≈ 3.18 µM) | CC[C@H](C)[C@H](NC(=O)[C@@H](Cc1ccccc1)NC)C(=O)N[C@@H](CO)C(=O)N[C@H](CCC(N)=O)C(=O)N[C@@H](C(=O)N[C@H](C(=O)N[C@@H](CO)C(=O)N[C@H]1C(=O)N[C@@H](C)C(=O)N[C@@H](CCCNC(=N)N)C(=O)N[C@@H]([C@@H](C)CC)CC(=O)O[C@H]1C)[C@@H](C)CC)[C@@H](C)CC
8 µg/mL (≈ 6.36 µM) | CC[C@H](C)[C@H](NC(=O)[C@@H](Cc1ccccc1)NC)C(=O)N[C@@H](CO)C(=O)N[C@H](CCC(N)=O)C(=O)N[C@@H](C(=O)N[C@H](C(=O)N[C@@H](CO)C(=O)N[C@H]1C(=O)N[C@@H](C)C(=O)N[C@@H](CCCNC(=N)N)CC(=O)N[C@@H]([C@@H](C)CC)C(=O)O[C@H]1C)[C@@H](C)CC)[C@@H](C)CC
4 µg/mL (≈ 3.14 µM) | CC[C@H](C)[C@H](NC(=O)[C@@H](Cc1ccccc1)NC)C(=O)N[C@@H](CO)C(=O)N[C@H](CCC(N)=O)C(=O)N[C@@H](C(=O)N[C@H](C(=O)N[C@@H](CO)C(=O)N[C@H]1C(=O)N[C@@H](C)C(=O)N[C@@H](CCCNC(=N)N)CC(=O)N[C@@H]([C@@H](C)CC)CC(=O)O[C@H]1C)[C@@H](C)CC)[C@@H](C)CC
16 µg/mL (≈ 12.4 µM) | CC[C@H](C)[C@H](NC(=O)[C@@H](Cc1ccccc1)NC)C(=O)N[C@@H](CO)C(=O)N[C@H](CCC(N)=O)C(=O)N[C@@H](C(=O)N[C@H](C(=O)N[C@@H](CO)C(=O)N[C@H]1C(=O)N[C@@H](C)CC(=O)N[C@@H](CCCNC(=N)N)CC(=O)N[C@@H]([C@@H](C)CC)CC(=O)O[C@H]1C)[C@@H](C)CC)[C@@H](C)CC
